Measured values: ChEMBL document CHEMBL1141847, “A new antibiotic nortriterpene quinone methide from Maytenus catingarum” (1999)
In brackets after ≈: the same amount, converted by molar mass. Activity calls are given as the source filed them. The rule behind the calls is not given here.

Tests used:
Staphylococcus aureus = test: Antimicrobial activity against Staphylococcus aureus ATCC 6538; format: functional
Salmonella typhimurium = test: Antimicrobial activity against sSalmonella Typhimurium UBC1; format: functional, organism-based; settings: Salmonella enterica subsp. enterica serovar Typhimurium
Bacillus subtilis = test: Antimicrobial activity against Bacillus subtilis CECT39; format: functional
Escherichia coli = test: Antimicrobial activity against Escherichia coli CECT99; format: functional, organism-based
Candida albicans = test: Antimicrobial activity against Candida albicans UBC2; format: functional, organism-based

MIC (Staphylococcus aureus): 5 µg/mL (≈ 10.1 µM)
MIC (Bacillus subtilis): 1.25 µg/mL (≈ 2.53 µM)
Structure (SMILES): COC(=O)[C@@]1(C)C[C@@H]2[C@](C)(CC1=O)C[C@H](O)[C@]1(C)C3=CC=C4C(=CC(=O)C(O)=C4C)[C@]3(C)CC[C@@]21C
Activity (Salmonella typhimurium): inactive
Activity (Escherichia coli): inactive
Activity (Candida albicans): inactive
